In patent US20150291565A1, “INDOLE COMPOUNDS AND THEIR USE AS ANTIMICROBIALS” (Memorial Sloan-Kettering Cancer Center, priority 2012, published 2015):
In brackets after ≈: the same amount, converted by molar mass. Where two headings read alike, the source gives them in different places.

Legend:
K. pneumoniae ATCC 13883 = test: Broth dilution MIC, K. pneumoniae ATCC 13883; format: cell-based; conditions: Klebsiella pneumoniae
C. albicans ATCC 14053 = test: Broth dilution MIC, C. albicans ATCC 14053; format: cell-based; conditions: Candida albicans, ATCC14053; Table 1; range 64 down to 0.12 μg/ml
Experimental: In vitro Anti-bacterial & Anti-fungal Activity Assay: All test compounds were prepared as 6.4 mg/ml stock solutions in DMSO and further diluted according to the NCCLS M7-A6 (Page 5) document with sterile water or appropriate diluent. A working stock of 256 μg/ml was used to do 1:2 serial dilutions in 96-well plates. […] The inoculums were prepared by making a direct sterile water suspension of isolated colonies from 18 to 24 hr agar plates for all organisms (Mueller Hinton, Blood Agar or SDA plates). Each bacterial suspension was adjusted to read between 0.09 and 0.11 absorbance at 620 nm. […] These were further diluted 1/100 in appropriate broth for inoculating the 96-well plates. The C. albicans suspension was adjusted to read between 70 and 75% Transmittance at 530 nm and then diluted 1/500 in RPMI+MOPS broth. All aerobic bacterial and fungal plates were incubated for 18 hrs. at 35° C. […] Plates were read using a Beckman Automated Plate Reader at 650 nm. Readings were confirmed by visual examination of plates. (See Table 1, Table 2, Table 3, and Table 4). […] It is important to note that positive results against C. albicans are often indicative of broad spectrum antifungal activity, while negative results are not necessarily conclusory of a lack of activity against other fungus.

[1] = test system: S. aureus ATCC 33591 (MRSA); test: Broth dilution MIC, S. aureus ATCC 33591; format: cell-based; conditions: for MIC: Staphylococcus aureus
E. coli ECM 1694 = test: Broth dilution MIC, E. coli ECM 1694; format: cell-based; conditions: Escherichia coli
[2] = test system: S. pneumoniae ATCC 6301 (PSSP); test: Broth dilution MIC, S. pneumoniae ATCC 6301; format: cell-based; conditions: Streptococcus pneumoniae
E. faecium CT-26 = test: Broth dilution MIC, E. faecium CT-26; format: cell-based; conditions: Enterococcus faecium
[3] = test system: E. faecalis ATCC 29212 (VRE); test: Broth dilution MIC, E. faecalis ATCC 29212; format: cell-based
M. smegmatis (mc2155) = test: Disk diffusion assay, zone of inhibition, M. smegmatis; format: cell-based; conditions: disk diffusion zone of inhibition
P. aeruginosa ATCC 9027 = test: Broth dilution MIC, P. aeruginosa ATCC 9027; format: cell-based; conditions: Pseudomonas aeruginosa
E. coli ATCC 25922 = test: Broth dilution MIC, E. coli ATCC 25922; format: cell-based; conditions: Escherichia coli
[4] = test system: E. faecium ATCC 700221 (VRE); test: Broth dilution MIC, E. faecium ATCC 700221; format: cell-based
S. aureus BAA-39 (MDR) = test: Broth dilution MIC, S. aureus BAA-39; format: cell-based; conditions: for MIC: Staphylococcus aureus, BAA39
[5] = test system: S. pneumoniae ATCC 700674 (PRSP); test: Broth dilution MIC, S. pneumoniae ATCC 700674; format: cell-based; conditions: Streptococcus pneumoniae
[6] = test system: S. aureus ATCC 29213 (MSSA); test: Broth dilution MIC, S. aureus ATCC 29213; format: cell-based; conditions: Staphylococcus aureus
MRSA = test: Disk diffusion assay, zone of inhibition, MRSA; format: cell-based, Staphylococcus aureus; conditions: disk diffusion zone of inhibition
K. pneumoniae ATCC 51503 = test: Broth dilution MIC, K. pneumoniae ATCC 51503; format: cell-based; conditions: Klebsiella pneumoniae
[7] = ATCC13883, Table 1, range 64 down to 0.12 μg/ml, read-out: MIC K. pneumoniae ATCC 13883
[8] = ATCC13883, Table 2, broth dilution MIC in ug/ml, read-out: MIC K pneumonia ATCC 13883
[9] = Table 1, range 64 down to 0.12 μg/ml, read-out: MIC S. aureus ATCC 33591
[10] = Table 2, broth dilution MIC in ug/ml, read-out: MIC S aureus ATCC 33591 MRSA
[11] = ECM1694, Table 1, range 64 down to 0.12 μg/ml, read-out: MIC E. coli ECM 1694
[12] = ECM1694, Table 2, broth dilution MIC in ug/ml, read-out: MIC E. coli ECM 1693
[13] = ATCC6301, Table 1, range 64 down to 0.12 μg/ml, read-out: MIC S. pneumoniae ATCC 6301
[14] = ATCC6301, Table 2, broth dilution MIC in ug/ml, read-out: MIC S pneumonia ATCC 6301 PSSP
[15] = CT26, Table 1, range 64 down to 0.12 μg/ml, read-out: MIC E. faecium CT-26
[16] = CT26, Table 2, broth dilution MIC in ug/ml, read-out: MIC E faecium CT-25
[17] = Enterococcus faecalis, Table 1, range 64 down to 0.12 μg/ml, read-out: MIC E. faecalis ATCC 29212
[18] = Table 2, broth dilution MIC in ug/ml, read-out: MIC E faecalis ATCC 29212 VRE
[19] = ATCC 9026 / ATCC 9027, Table 2, broth dilution MIC in ug/ml, read-out: MIC P aeruginosa ATCC 9026
[20] = ATCC9027, Table 1, range 64 down to 0.12 μg/ml, read-out: MIC P. aeruginosa ATCC 9027
[21] = ATCC 25921 / ATCC 25922, Table 2, broth dilution MIC in ug/ml, read-out: MIC E. coli ATCC 25921
[22] = ATCC25922, Table 1, range 64 down to 0.12 μg/ml, read-out: MIC E. coli ATCC 25922
[23] = Enterococcus faecium, Table 1, range 64 down to 0.12 μg/ml, read-out: MIC E. faecium ATCC 700221
[24] = Table 2, broth dilution MIC in ug/ml, read-out: MIC E faecium ATCC 700221 VRE
[25] = Table 1, range 64 down to 0.12 μg/ml, read-out: MIC S. aureus BAA-39
[26] = Table 2, broth dilution MIC in ug/ml, read-out: MIC S aureus BAA-39 MDR
[27] = Table 1, range 64 down to 0.12 μg/ml, read-out: MIC S. pneumoniae ATCC 700674
[28] = Table 2, broth dilution MIC in ug/ml, read-out: MIC S pneumonia ATCC 700674 PRSP
[29] = Table 1, range 64 down to 0.12 μg/ml, read-out: MIC S. aureus ATCC 29213
[30] = Table 2, broth dilution MIC in ug/ml, read-out: MIC S aureus ATCC 29213 MSSA
[31] = ATCC51503, Table 1, range 64 down to 0.12 μg/ml, read-out: MIC K. pneumoniae ATCC 51503
[32] = ATCC51503, Table 2, broth dilution MIC in ug/ml, read-out: MIC K pneumonia ATCC 51503

| Compound | MIC (K. pneumoniae ATCC 13883; [7]) | MIC (K. pneumoniae ATCC 13883; [8]) | MIC (C. albicans ATCC 14053) | MIC [1, 9] | MIC [1, 10] | MIC (E. coli ECM 1694; [11]) | MIC (E. coli ECM 1694; [12]) | MIC [2, 13] | MIC [2, 14] | MIC (E. faecium CT-26; [15]) | MIC (E. faecium CT-26; [16]) | MIC [3, 17] | MIC [3, 18] | Zone Size M. smegmatis (M. smegmatis (mc2155)) | MIC (P. aeruginosa ATCC 9027; [19]) | MIC (P. aeruginosa ATCC 9027; [20]) | MIC (E. coli ATCC 25922; [21]) | MIC (E. coli ATCC 25922; [22]) | MIC [4, 23] | MIC [4, 24] | further results |
| --- | --- | --- | --- | --- | --- | --- | --- | --- | --- | --- | --- | --- | --- | --- | --- | --- | --- | --- | --- | --- | --- |
| c1cncc(Nc2ccc(-c3cc4ccc(C5=NCCN5)cc4[nH]3)cc2)c1 [SKI-4] | > 64 µg/mL | 64 µg/mL (≈ 181 µM) | > 64 µg/mL | 1 µg/mL (≈ 2.83 µM) | 1 µg/mL (≈ 2.83 µM) | ≤ 0.12 µg/mL | 0.12 µg/mL (≈ 0.34 µM) | ≤ 0.12 µg/mL | 0.06 µg/mL (≈ 0.17 µM) | 0.25 µg/mL (≈ 0.707 µM) | 0.25 µg/mL (≈ 0.707 µM) | 0.5 µg/mL (≈ 1.41 µM) | 0.5 µg/mL (≈ 1.41 µM) | 27.6 mm | 64 µg/mL (≈ 181 µM) | > 64 µg/mL | 1 µg/mL (≈ 2.83 µM) | 1 µg/mL (≈ 2.83 µM) | 0.25 µg/mL (≈ 0.707 µM) | 0.25 µg/mL (≈ 0.707 µM) | MIC S. aureus ATCC 33591 ([1]; Table 3, starting at 4 μg/ml): 1 µg/mL (≈ 2.83 µM); MIC (E. coli ECM 1694; ECM1694, Table 3, starting at 4 μg/ml, read-out: MIC E. coli ECM 1694): 0.12 µg/mL (≈ 0.34 µM); MIC ([2]; ATCC6301, Table 3, starting at 4 μg/ml, read-out: MIC S. pneumoniae ATCC 6301): 0.06 µg/mL (≈ 0.17 µM); MIC (E. faecium CT-26; CT26, Table 3, starting at 4 μg/ml, read-out: MIC E. faecium CT-26): 0.25 µg/mL (≈ 0.707 µM); MIC E. faecalis ATCC 29212 ([3]; Table 3, starting at 4 μg/ml): 0.5 µg/mL (≈ 1.41 µM); MIC ([4]; Enterococcus faecium, Table 3, starting at 4 μg/ml, read-out: MIC E. faecium ATCC 700221): 0.25 µg/mL (≈ 0.707 µM); MIC (S. aureus BAA-39 (MDR); [25]): 1 µg/mL (≈ 2.83 µM); MIC (S. aureus BAA-39 (MDR); [26]): 1 µg/mL (≈ 2.83 µM); MIC S. aureus BAA-39 (S. aureus BAA-39 (MDR); Table 3, starting at 4 μg/ml): 1 µg/mL (≈ 2.83 µM); MIC [5, 27]: 0.5 µg/mL (≈ 1.41 µM); MIC [5, 28]: 0.5 µg/mL (≈ 1.41 µM); MIC ([5]; Table 3, starting at 4 μg/ml, read-out: MIC S. pneumoniae ATCC 700674): 0.5 µg/mL (≈ 1.41 µM); MIC ([6]; Table 3, starting at 4 μg/ml, read-out: MIC S. aureus ATCC 29213): 1 µg/mL (≈ 2.83 µM); MIC [6, 29]: 2 µg/mL (≈ 5.66 µM); MIC [6, 30]: 1 µg/mL (≈ 2.83 µM); Zone Size MRSA (MRSA): 14 mm; MIC (K. pneumoniae ATCC 51503; [31]): > 64 µg/mL; MIC (K. pneumoniae ATCC 51503; [32]): 64 µg/mL (≈ 181 µM) |
| c1cc(-c2cc3ccc(C4=NCCN4)cc3[nH]2)ccc1NC1CCNCC1 [SKI-6] | > 64 µg/mL | 64 µg/mL (≈ 178 µM) | > 64 µg/mL | 8 µg/mL (≈ 22.3 µM) | 8 µg/mL (≈ 22.3 µM) | 4 µg/mL (≈ 11.1 µM) | 4 µg/mL (≈ 11.1 µM) | 32 µg/mL (≈ 89 µM) | 32 µg/mL (≈ 89 µM) | 64 µg/mL (≈ 178 µM) | 64 µg/mL (≈ 178 µM) | > 64 µg/mL | 64 µg/mL (≈ 178 µM) | 16.3 mm | 64 µg/mL (≈ 178 µM) | > 64 µg/mL | 32 µg/mL (≈ 89 µM) | 32 µg/mL (≈ 89 µM) | > 64 µg/mL | 64 µg/mL (≈ 178 µM) | MIC (S. aureus BAA-39 (MDR); [25]): 8 µg/mL (≈ 22.3 µM); MIC (S. aureus BAA-39 (MDR); [26]): 8 µg/mL (≈ 22.3 µM); MIC [5, 27]: > 64 µg/mL; MIC [5, 28]: 64 µg/mL (≈ 178 µM); MIC [6, 29]: 8 µg/mL (≈ 22.3 µM); MIC [6, 30]: 8 µg/mL (≈ 22.3 µM); Zone Size MRSA (MRSA): 15 mm; MIC (K. pneumoniae ATCC 51503; [31]): > 64 µg/mL; MIC (K. pneumoniae ATCC 51503; [32]): 64 µg/mL (≈ 178 µM) |
